Measurements reported in US5373090A, “Aprotinin analogues and a process for the production thereof” (Novo Nordisk A/S, priority 1988, dated 1994).
Values belong to the substance of their own block, whether it stands above or below them.

Key:
Human plasma kallikrein = target: T1, Human plasma kallikrein (Homo sapiens, UniProt P03952); test: Inhibition of amidolytic activity of human plasma kallikrein (substrate S2302); format: biochemical
T1 construct: purchased Sigma (St. Louis, Mo.)
Experimental: (§1) The concentration was calculated using E280 nm=8.3 and Mr =6500. Human plasma kallikrein was obtained from Sigma (St. Louis, Mo.), bovine factor Xa was purified according to (H. Nobukazu et al. J.Biochem. 97 (1985)1347-1355), human factor IIa (thrombin) was a gift from Dr. W. Lawson (New York State Dept. of Health, Albany, N.Y.), recombinant human factor VIIa was from NOVO (Bagsvaerd, Denmark) and recombinant human protein Ca was from ZymoGenetics, Inc. (Seattle, Wash.). Substrate S 2302 (H-D-Pro-Phe-Arg-p-nitroanilide) substrate S2238 (H-D-Phe-Pip-Arg-p-nitroanilide) and substrate S2366 (Glu-Pro-Arg-p-nitroanilide) were from Kabi (Stockholm, Sweden). Substrate FXa-1 (methoxycarbonyl DCH-Gly-Arg-p-nitroanilide) was from NycoMed (Oslo, Norway). The experiments were performed in 100 mM NaCl, 50 mM Tris-HCl 0.01% Tween80, pH 7.4 at 25° C.
Substrate S 2302 (0.6 mM) was added to a final volume of 300 μand the rate of nitroaniline generation was measured at 405 nm by means of a Micro ELISA® Autoreader MR 580 from Dynatech Laboratories. The rate is proportional to the concentration of free enzyme.

[1] = target: T2, human factor IIa (thrombin) (Homo sapiens, UniProt P00734); test: Inhibition of amidolytic activity of factor IIa (substrate S2238); format: biochemical; settings: 1.0 μM aprotinin analogue
T2 construct: human factor IIa (thrombin) was a gift from Dr. W. Lawson; gift from Dr. W. Lawson (New York State Dept. of Health, Albany, N.Y.)
Experimental: as §1
(§2) Substrate S 2302 (0.6 mM) was added to a final volume of 300 μand the rate of nitroaniline generation was measured at 405 nm by means of a Micro ELISA® Autoreader MR 580 from Dynatech Laboratories. […]
(§3) The analogues were also tested for inhibition of the amidolytic activity of the serine proteases: bovine factor Xa, human factor IIa, human recombinant factor VIIa and human recombinant protein Ca. […] Finally the analogues were analysed for an effect on the coagulation factors of human plasma by means of two clotting tests. […]

[2] = target: T3, recombinant human factor VIIa (Homo sapiens, UniProt P08709); test: Inhibition of amidolytic activity of factor VIIa; format: biochemical; settings: 1.0 μM aprotinin analogue
T3 construct: recombinant human factor VIIa was from NOVO (Bagsvaerd, Denmark)
T3 sequence (P08709 213-466 limits assumed): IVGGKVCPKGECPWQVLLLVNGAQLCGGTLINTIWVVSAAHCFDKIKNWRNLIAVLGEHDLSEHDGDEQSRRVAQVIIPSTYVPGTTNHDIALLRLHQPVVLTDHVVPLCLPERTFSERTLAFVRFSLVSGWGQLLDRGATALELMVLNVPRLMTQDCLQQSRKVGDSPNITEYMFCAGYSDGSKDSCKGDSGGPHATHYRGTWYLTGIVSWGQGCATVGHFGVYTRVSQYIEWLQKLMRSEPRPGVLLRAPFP
T3 sequence (P08709 61-212 partner limits assumed): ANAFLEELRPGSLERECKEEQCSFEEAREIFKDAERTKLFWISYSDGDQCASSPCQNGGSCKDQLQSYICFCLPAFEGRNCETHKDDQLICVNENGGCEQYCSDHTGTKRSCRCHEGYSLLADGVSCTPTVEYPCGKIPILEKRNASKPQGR
Experimental: as §1, §2, §3

bovine factor Xa = target: T4, bovine factor Xa (Bos taurus, UniProt P00743); test: Inhibition of amidolytic activity of factor Xa (substrate FXa-1); format: biochemical; settings: 1.0 μM aprotinin analogue; substrate FXa1
T4 construct: bovine factor Xa was purified according to (H. Nobukazu et al. J.Biochem. 97 (1985)1347-1355); from tissue; bovine plasma inferred
T4 sequence (P00743 234-492 limits assumed): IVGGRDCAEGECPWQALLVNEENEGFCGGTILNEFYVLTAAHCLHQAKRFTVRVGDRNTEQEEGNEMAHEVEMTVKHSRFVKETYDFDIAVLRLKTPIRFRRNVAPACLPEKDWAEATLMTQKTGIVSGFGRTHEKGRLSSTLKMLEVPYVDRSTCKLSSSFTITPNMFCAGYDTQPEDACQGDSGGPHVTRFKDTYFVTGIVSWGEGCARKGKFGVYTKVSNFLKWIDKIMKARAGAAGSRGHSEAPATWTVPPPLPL
T4 sequence (P00743 41-180 partner limits assumed): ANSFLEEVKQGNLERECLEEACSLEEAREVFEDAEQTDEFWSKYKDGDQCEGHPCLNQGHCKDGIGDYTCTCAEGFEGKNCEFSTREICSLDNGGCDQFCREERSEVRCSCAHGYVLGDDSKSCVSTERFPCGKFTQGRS
Experimental: as §1, §2, §3

[3] = target: T5, recombinant human protein Ca (Homo sapiens, UniProt P04070); test: Inhibition of amidolytic activity of protein Ca (substrate S2366); format: biochemical; settings: graphical Dixon method, read-out: Ki, amidolytic activity, Prot. Ca
T5 construct: purchased ZymoGenetics, Inc. (Seattle, Wash.)
T5 sequence (P04070 212-461 limits assumed): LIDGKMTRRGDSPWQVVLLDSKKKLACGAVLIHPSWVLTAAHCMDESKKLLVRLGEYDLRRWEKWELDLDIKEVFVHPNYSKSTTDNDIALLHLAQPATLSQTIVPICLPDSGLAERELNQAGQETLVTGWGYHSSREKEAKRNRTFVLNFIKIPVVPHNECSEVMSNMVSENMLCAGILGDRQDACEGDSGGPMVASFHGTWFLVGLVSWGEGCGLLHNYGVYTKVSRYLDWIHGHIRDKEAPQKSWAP
T5 sequence (P04070 43-197 partner limits assumed): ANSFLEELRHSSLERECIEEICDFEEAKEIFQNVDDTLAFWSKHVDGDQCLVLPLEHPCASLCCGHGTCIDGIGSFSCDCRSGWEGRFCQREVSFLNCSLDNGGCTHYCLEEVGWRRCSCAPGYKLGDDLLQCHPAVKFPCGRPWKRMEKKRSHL
Experimental: as §1, §2, §3

[4] = tested on: coagulation factors of human plasma; test: Clotting test, prothrombin time (PTT); format: biochemical; settings: 1.0 μM aprotinin analogue
Experimental: (§4) The analogues were also tested for inhibition of the amidolytic activity of the serine proteases: bovine factor Xa, human factor IIa, human recombinant factor VIIa and human recombinant protein Ca. The experiments were performed essentially as described for plasma kallikrein only appropriate substrates were used. Finally the analogues were analysed for an effect on the coagulation factors of human plasma by means of two clotting tests. These tests, the prothrombin time (PTT) and the activated thromboplastin time (APTT) were performed with General Diagnostics® reagents from Organon (Durham, N.C.) according to the directions given by the manufacturer.

[5] = tested on: coagulation factors of human plasma; test: Clotting test, activated thromboplastin time (APTT); format: biochemical; settings: 1.0 μM aprotinin analogue
Experimental: as §4

granulocyte elastase = target: T6, granulocyte elastase (Homo sapiens, UniProt P08246); settings: known analogues, as claimed in prior art; cited from earlier work
T6 sequence (P08246 30-267): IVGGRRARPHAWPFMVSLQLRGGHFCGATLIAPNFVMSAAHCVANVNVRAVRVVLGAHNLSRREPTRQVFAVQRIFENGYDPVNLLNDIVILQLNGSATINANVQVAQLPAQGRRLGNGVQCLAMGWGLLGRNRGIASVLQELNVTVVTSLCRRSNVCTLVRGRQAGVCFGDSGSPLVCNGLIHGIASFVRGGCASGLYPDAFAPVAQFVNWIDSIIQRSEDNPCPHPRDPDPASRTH

collagenase = settings: known analogues, as claimed in prior art; cited from earlier work
trypsin = target: T7, trypsin (Bos taurus, UniProt P00760); settings: known analogues, as claimed in prior art; cited from earlier work
T7 construct: gene PRSS1
T7 sequence (P00760 24-246): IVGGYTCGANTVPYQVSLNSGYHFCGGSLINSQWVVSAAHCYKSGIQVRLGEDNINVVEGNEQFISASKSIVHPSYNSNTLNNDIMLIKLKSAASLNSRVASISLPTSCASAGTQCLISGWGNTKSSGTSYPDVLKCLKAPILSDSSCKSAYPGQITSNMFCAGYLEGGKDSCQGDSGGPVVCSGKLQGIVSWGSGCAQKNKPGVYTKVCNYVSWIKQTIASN

kallikrein = settings: known analogues, as claimed in prior art; cited from earlier work

T1 sequence (P03952 391-638 limits assumed): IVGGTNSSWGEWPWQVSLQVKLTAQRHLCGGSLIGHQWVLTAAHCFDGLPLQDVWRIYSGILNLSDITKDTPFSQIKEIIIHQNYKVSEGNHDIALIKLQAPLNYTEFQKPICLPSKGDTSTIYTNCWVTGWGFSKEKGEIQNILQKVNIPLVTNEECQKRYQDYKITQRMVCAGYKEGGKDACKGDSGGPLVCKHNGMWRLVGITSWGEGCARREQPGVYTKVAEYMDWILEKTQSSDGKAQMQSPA
T1 sequence (P03952 20-390 partner limits assumed): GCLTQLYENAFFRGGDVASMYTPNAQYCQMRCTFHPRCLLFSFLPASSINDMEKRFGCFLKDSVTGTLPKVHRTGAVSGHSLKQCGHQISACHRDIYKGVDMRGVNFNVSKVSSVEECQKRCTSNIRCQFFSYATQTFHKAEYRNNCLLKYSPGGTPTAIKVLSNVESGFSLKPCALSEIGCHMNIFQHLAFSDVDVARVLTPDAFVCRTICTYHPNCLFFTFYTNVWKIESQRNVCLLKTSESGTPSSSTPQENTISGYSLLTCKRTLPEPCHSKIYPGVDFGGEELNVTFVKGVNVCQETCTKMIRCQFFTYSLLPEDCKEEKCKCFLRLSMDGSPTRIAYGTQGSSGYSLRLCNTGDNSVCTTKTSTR

Ki (Human plasma kallikrein; graphical Dixon method, substrate S2302, pH 7.4, 25° C.): 180 nM
Inhibition of plasma kallikrein (in words, FIGS. 5A and 5B) (Human plasma kallikrein; kallikrein 3 nM, aprotinin 0-20 nM, 30 minutes): moderate inhibition
Amidolytic activity of FIIa, inhibition [1]: -
Amidolytic activity of FVIIa, inhibition [2]: -
Amidolytic activity of FXa, inhibition (bovine factor Xa): -
Ki [3]: 400 nM
Substance: Aprotinin (bovine pancreatic trypsin inhibitor, BPTI) [Native Aprotinin]
Clot assays PTT [4]: -
Clot assays APTT [5]: -

Substance: aprotinin(15 Val)
Effect on elastase (in words) (granulocyte elastase): relatively high selectivity for granulocyte elastase
Inhibition effect on collagenase (in words) (collagenase): inhibition effect on collagenase

Substance: aprotinin(15Ala)
Effect on elastase (in words) (granulocyte elastase): only a weak inhibitory effect on elastase

Substance: aprotinin(15Gly)
Antitrypsin activity (in words) (trypsin): outstanding antitrypsin activity
Inhibition of kallikrein (in words) (kallikrein): surprisingly inhibits kallikrein
